Assay results taken from article PMC3934894, “Inhibition of Human and Yeast 20S Proteasome by Analogues of Trypsin Inhibitor SFTI-1” (PLoS ONE, 2014).

Legend:
[1] = molecular target: human 20S proteasome, caspase-like (C-L) activity (Homo sapiens, UniProt P28072); experiment: C-L activity of SDS-activated human 20S proteasome (Z-LLE-AMC); conditions: read-out: C-like Human 20S IC50; SDS-activated human 20S, pH 8.1, 37°C, Z-LLE-AMC 79 µM
Protocol: An assay buffer was composed of 50 mM Tris-HCl (pH 8.1) and 0.02% (w/v) SDS (exceptionally, T-L activity was measured in Tris buffer without SDS, that may trigger precipitation of substrates containing the guanidino group [21]). […] The SFTI-1 analogues were incubated with 20S proteasome in assay buffer at 37°C for 30 min. Reactions were performed in 96-well black BRAND plates (Germany). The final volume of the solution in each well was 200 µL. […] Proteasomal subsite activities were determined by monitoring the AMC liberation over time with a Fluorostar Omega (BMG Labtech, Germany) using excitation and emission wavelengths of 380 nm and 450 nm, respectively. […] Association constants Ka were measured as described previously [14] and calculated using a two-parameter fit model (using the GraFit software package).

bovine β-trypsin = conditions: cited from earlier work
20S proteasome = system: 20S proteasome; design: method as in PMID 19054805; conditions: cited from earlier work
bovine α-chymotrypsin = system: bovine α-chymotrypsin; design: method as in PMID 15746161; conditions: determined previously in the authors' laboratory; cited from earlier work
[2] = system: 20S proteasome, ChT-L activity; conditions: cited from earlier work
HCT-116 = system: HCT-116; design: method as in PMID 10805568; conditions: human cancer cells HCT-116; read-out: cytotoxic activity IC50, HCT-116; cited from earlier work
[3] = system: 20S proteasome, C-L activity; conditions: cited from earlier work
HL-60 = system: HL-60; design: method as in PMID 10805568; conditions: human cancer cells HL-60; read-out: cytotoxic activity IC50, HL-60; cited from earlier work
[4] = system: 20S proteasome, T-L activity; conditions: cited from earlier work

sunflower trypsin inhibitor SFTI-1
IC50 [1]: 58200 nM
association constant Ka with trypsin (bovine β-trypsin): 1.1e+10 M⁻¹
Ki (bovine β-trypsin; read-out: inhibitory constant Ki, trypsin): 0.5 nM
inhibition of 20S proteasome (20S proteasome): does not cause any inhibition

[Phe^5]SFTI-1
Ka with bovine α-chymotrypsin (bovine α-chymotrypsin): 2e+09 M⁻¹

C/C=C\NC(=O)[C@H]1NC(=O)[C@H](CC(N)=O)NC(=O)[C@@H](NC(=O)C(=O)[C@@H](C)CC)Cc2ccc(O)c(c2)-c2cccc3c2NC(=O)[C@@]3(O)[C@@H]1O [TMC-95A]
IC50 ([2]; read-out: IC50 ChT-L activity of 20S proteasome): 5.4 nM
Ki ([2]; read-out: Ki app (apparent Ki constant) ChT-L): 1.1 nM
IC50 (HCT-116): 4400 nM
IC50 ([3]; read-out: IC50 C-L activity of 20S proteasome): 60 nM
Ki ([3]; read-out: Ki app (apparent Ki constant) C-L): 29 nM
IC50 (HL-60): 9800 nM
IC50 ([4]; read-out: IC50 T-L activity of 20S proteasome): 200 nM
Ki ([4]; read-out: Ki app (apparent Ki constant) T-L): 810 nM
